In patent EP2742942A1, “Niacinamide for inducing generation of antimicrobial peptides” (Unilever N.V., priority 2012, dated 2014):

Columns and labels:
Lipocalin-1 = test: AMP secretion by primary keratinocytes, mass spectrometry of secretome (PSM); type: cell-based; conditions: Niacinamide 1mg/ml, 72 hours; control sample 0
Method: (§1) The following procedure was used to determine the AMPs induced as a consequence of niacinamide on keratinocte cells. • 1. Primary keratinocytes were seeded in 12 well plates with 1 ml of KGM complete media. (Seeded 60,000 cells/well at Passage-4). • 2. Plates were incubated in the CO2 incubator for 48 hours. • 3. After 48 hours of incubation, cells were treated with and without Niacinamide 1mg/ml concentration in duplicate wells (fresh media was used for treatment). • 4. After 72 hours of incubation, cell culture supernatant was transferred in to 1.5 ml eppendorf tubes respectively. • 5. Samples were then passed through 20 kDa cutoff filters to remove high molecular weight proteins. • 6. Eluted samples, containing <20kDa proteins were transferred to 15ml sterile centrifuge tubes. • 7. Then, chilled acetone (HPLC grade) was added to the eluted samples (1 ml of sample:4ml of acetone) • 8. Tubes were transferred to -20°C for 24 hours to precipitate the proteins. • 9. After 24 hours, tubes were centrifuged at 14000g for 40 minutes at 4°C. • 10. The supernatant was discarded and the protein pellet was analysed using mass spectrometry for proteins.
(§2) The increased level of secretion of AMPs is measured by a PSM value (a peptide spectrum match scoring function) which is a relative measure of abundance of the peptide in the secretome. Table - 5

Lipocalin -2 = test: as above; type: cell-based; conditions: Niacinamide 1mg/ml, 72 hours; control sample 1
Method: as §1, §2

Lactoferrin = test: as above; type: cell-based; conditions: Niacinamide 1mg/ml, 72 hours; control sample 1
Method: as §1, §2

S100-A9 = test: as above; type: cell-based; conditions: Niacinamide 1mg/ml, 72 hours; control sample 2
Method: as §1, §2

Elafin = test: as above; type: cell-based; conditions: Niacinamide 1mg/ml, 72 hours; control sample 1
Method: as §1, §2

Lysozyme C = test: as above; type: cell-based; conditions: Niacinamide 1mg/ml, 72 hours; control sample 2
Method: as §1, §2

S-100-A8 = test: as above; type: cell-based; conditions: Niacinamide 1mg/ml, 72 hours; control sample 1
Method: as §1, §2

S-100-A11 = test: as above; type: cell-based; conditions: Niacinamide 1mg/ml, 72 hours; control sample 2
Method: as §1, §2

Psoriasin (S100A7) = test: Psoriasin ELISA of keratinocyte culture supernatant; type: cell-based, human; conditions: detected by ELISA, keratinocytes
Method: (§3) Human primary keratinocytes prepared from neonatal foreskin were obtained from (Lonza India) and cultured in serum-free keratinocyte growth medium with defined growth supplements (Invitrogen). Keratinocytes were cultured in 12 and 24 well tissue culture plates (BD Falcon) and treated cells at a confluence of 60-70%. Keratinocytes stimulation was performed in KGM with growth supplement and all experiment was done between passages 3 to 5.
Primary keratinocytes were seeded in 12-well plates (BD falcon). At 60 to 70% confluency, cells were treated with different concentration of Niacinamide for 72h. After 72 hours of incubation cell culture supernatant was stored at -70°C until used for ELISA. All ELISA reagents and samples were brought to room temperature prior to the assay. Cell culture supernatant samples were centrifuged at 5000 rpm for 10 minutes before use. 100 ↘l of undiluted sample of cell culture supernatant was used for checking the psoriasin level by using ELISA kit from CircuLex. The clinical samples were diluted in to 1:25 in dilution buffer and used 100↘l from diluted samples for checking psoriasin level by ELISA. In case of LL-37, 100 ↘l of undiluted samples from in vitro as well as clinical samples were used for checking LL-37 level by ELISA (Hycult Biotech).

E. coli 10536 = test: In vivo forearm study with lotion, residual E. coli by cup scrub method; conditions: lotion with 3% niacinamide, forearm of human volunteers, twice a day
Method: To confirm the findings from the in vitro experiments, the effect of Niacinamide on healthy human volunteers was tested in vivo. The volunteers were asked to apply a lotion with and without niacinamide (3%) on their forearm twice a day. After 7 days of application, the spots were extracted in PBS and ELISA was performed for detection of Psoriasin and LL-37 AMPs.
Glycerol stock of E. coli (10536) was inoculated in 30 ml TSB medium and culture was incubated overnight at 37°C in shaker incubator. Overnight culture was sub cultured on TSA slants and incubated overnight at 37°C then the slants were stored at 4°C (once in 15 days, slants were prepared freshly).
E. coli culture from slant was sub cultured on TSA plate and incubated overnight at 37°C. Overnight grown plate culture of E. coli was suspended in 6 to 7 ml of Sodium phosphate buffer (10mM). Density of culture was adjusted to 1 OD620 using spectrophotometer and used for clinical studies.
This technique is included in the ASTM method, E2752 - 10 (Standard guide for evaluation of residual effectiveness of antibacterial). The cup and rod were made up of Teflon and the area of the cup is 2.84 cm^2. The cup was used to hold the buffer on skin and rod was used for scrubbing, for better recovery of skin AMP and/or residual bacteria from skin. The duration of scrubbing was 1 min. […]

E. coli = test: Human volunteer study with Vaseline healthy white cream, E. coli count on forearm; type: in vivo; conditions: two times per day for 1 day, control 4.3
Method: An experiment using the following protocol was conducted: • 1. Volunteers were given Lux™ soap for use and asked not to use any other soap or moisturizers on their forearm for 7 days before the start of the study. • 2. Volunteer were be asked to apply Vaseline™ healthy white base cream and Vaseline™ healthy white formulated with Niacinamide (1%, 2% and 3%) at various spots on the forearm. • 3. Volunteers were asked to repeat […] for two times per day for 1 day, morning after bath and night just before sleep. The volunteers were asked not to wash the forearms after application of formulations at night. • 4. On day 2, the forearms were washed by the investigator with a non-antibacterial soap bar and asked the volunteers to wait for 6 hours under controlled conditions (24 ±2°C and 45%±5% RH) • 5. After 6 hours of waiting, ∼10^6 E. coli were applied on the forearm to each spot separately. The contact time of E. coli on skin was 15 minutes. • 6. After 15 minutes, the sample was extracted from the forearm using the cup-rod method. • 7. E. coli was counted using standard microbiological method.

LL-37 gene expression = LL-37 gene expression in primary keratinocytes, quantitative real-time PCR; type: cell-based; conditions: Homo sapiens, Keratinocyte, 18 hours, Niacinamide 1.22 mg/ml, control = 1.0, read-out: Fold change (LL-37 gene expression)
Method: as §3
(§4) NHEKs were cultured in 12-well plates (BD, Falcon) at 6 × 10^4 cells per well. After 24h of incubation, 50% media was replaced with fresh media. On day 3, cells were treated with different concentrations of Niacinamide with fresh media for 16-18 hours. Cells were harvested in RLT buffer (Qiagen) and samples were stored at -70°C till used for RNA isolation.
(§5) Total RNA was isolated using RNeasy Mini kit from Qiagen, according to the manufacturer's instructions. […]
(§6) Real time PCR was carried out using SYBR green method as per the manufacturer's (Bio-Rad, USA) instructions using thermal controlled Chromo4 machine (Bio-Rad, USA). 5µl of 1:10 diluted sample of cDNA and 1.5pmole of specific primers were used in each reaction by using a standardized PCR program (i.e. 94°C for 5 minutes followed by 50 cycles of "94°C for 15 seconds, 60°C for 30sec, 72°C for 30 seconds) and results were analysed by using 2^-ΔΔCT method. […]

[1] = tested on: psoriasin gene expression; test: Psoriasin gene expression in primary keratinocytes, quantitative real-time PCR; type: cell-based, human
Method: as §3, §4, §5, §6

SMILES: NC(=O)c1cccnc1 [Niacinamide]
- PSM value with niacinamide treatment, Lipocalin-1 (Lipocalin-1): 2
- PSM value with niacinamide treatment, Lipocalin -2 (Lipocalin -2): 4
- PSM value with niacinamide treatment, Lactoferrin (Lactoferrin): 7
- PSM value with niacinamide treatment, S100-A9 (S100-A9): 4
- PSM value with niacinamide treatment, Elafin (Elafin): 3
- PSM value with niacinamide treatment, Lysozyme C (Lysozyme C): 4
- PSM value with niacinamide treatment, S-100-A8 (S-100-A8): 3
- PSM value with niacinamide treatment, S-100-A11 (S-100-A11): 5
- secretion of psoriasin AMP (in words) (Psoriasin (S100A7)): able to induce the secretion of psoriasin AMP
- Residual log of E.Coli measured after one day of applying a composition (E. coli 10536; n= 28, basal 4.21, lotion without niacinamide 3.44): 2.31
- Residual log of E.Coli measured after 7 days of applying a composition (E. coli 10536; n= 34, basal 4.41, lotion without niacinamide 3.56): 2.39
- Residual log of E. Coli (E. coli; 1 % niacinamide in Vaseline healthy white cream): 3.5
- Residual log of E. Coli (E. coli; 2% niacinamide in Vaseline healthy white cream): 3.0
- Residual log of E. Coli (E. coli; 3% niacinamide in Vaseline healthy white cream): 2.7
- fold induction at 1220 µg/mL (LL-37 gene expression): 2.4
- induction of psoriasin gene expression (in words) ([1]; 1.22 mg/ml): unable to induce psoriasin gene expression
- fold induction at 1220 µg/mL ([1]; Homo sapiens, Keratinocyte, primary keratinocytes, 18 hours, Niacinamide 1.22 mg/ml, control = 1.0, read-out: Fold change (psoriasin gene expression)): 1.1
